Measured values reported in patent US7700617B2, “Salt of naphthyridine carboxylic acid derivative” (LG Life Sciences, Ltd., priority 1997, dated 2010).
In brackets after ≈: the same amount, converted by molar mass.

Columns and labels:
Water solubility = conditions: 25 °C
[1] = Chemical stability at elevated temperature, decomposition by liquid chromatography; type: physicochemical; conditions: for Thermal stability with elapsed time: at 70° C.
Protocol: The present inventors also compared the chemical stability under heating of the hydrates with that of the anhydrate in order to identify the influence of hydration on the chemical stability. In this test, the anhydrate and hydrate were each kept at 70° C. for 4 weeks, and the extent of decomposition is analyzed by liquid chromatography. No difference in the extent of decomposition was noticed between the hydrates and the anhydrate, and thus confirming that the hydrate has the same chemical stability as the anhydrate.
The chemical stability of the n=3 hydrate of Example 2 and the n=1.5 hydrate of Example 3 and the anhydrate of Example 1 were compared at elevated temperature in order to determine the effect on chemical stability of the extent of hydration.
The anhydrate and each of the hydrates were introduced into a glass vial and maintained at 70° C. The extent of decomposition with elapsed time was analyzed by liquid chromatography.

[2] = Equilibrium moisture content determination of hydrates in desiccators of controlled relative humidity; type: physicochemical
Protocol: Six saturated aqueous salt solutions were introduced into each desiccator to control the inner relative humidity to a specific value as shown in Table 3. Then, equilibrium moisture contents of n=3 hydrate and n=1.5 hydrate of Examples 2 and 3, respectively, were determined at several relative humidities.
The sample (100 mg) was spread on a pre-weighed Petri dish and the total weight was accurately measured, then three of the sample were placed in each desiccator of Table 3. The desiccators were allowed to stand at normal temperature for 7 days and then the sample was taken to be weighed. After 13 days, one of the three samples inside each desiccator was taken and the moisture content of each was measured by the thermogravimetric analysis described in Test Example 2. Equilibrium moisture content at each relative humidity is represented in FIG. 3 (n=3 hydrate) and FIG. 4 (n=1.5 hydrate). […] Both hydrates are stable since they maintain a constant equilibrium moisture content regardless of the relative humidity change.

[3] = Observed moisture content of the methanesulfonate hydrates; type: physicochemical; conditions: by hydration number (n)
Description: The moisture content of the methanesulfonate hydrates varies with the hydration number (n) of the hydrated molecule. The methanesulfonate has a molecular weight of 485.5 thus the calculated moisture content of hydrates where n is 1, 1.5, 2, 2.5, 3, 3.5 and 4 is 3.6%, […], 6.9%, 8.5%, 10.0%, 11.5% and 12.9% respectively. However, the actual moisture content of the methanesulfonate hydrates may differ from the calculated value depending on various factors including recrystallization conditions and drying conditions.

## CO/N=C1\CN(c2nc3c(cc2F)c(=O)c(C(=O)O)cn3C2CC2)CC1CN (stereo not shown) [Free form, 7-(3-aminomethyl-4-methoxyiminopyrrolidin-1-yl)-1-cyclopropyl-6-fluoro-4-oxo-1,4-dihydro-1,8-naphthyridine-3-carboxylic acid]
Water solubility
  solubility: 7 µg/mL (≈ 18 µM)

## CON=C1CN(c2nc3c(cc2F)c(=O)c(C(=O)O)cn3C2CC2)CC1CN.CON=C1CN(c2nc3c(cc2F)c(=O)c(C(=O)O)cn3C2CC2)CC1CN.CS(=O)(=O)O.CS(=O)(=O)O.O.O.O (stereo not shown) [n = 1.5 hydrate, 7-(3-aminomethyl-4-methoxyiminopyrrolidin-1-yl)-1-cyclopropyl-6-fluoro-4-oxo-1,4-dihydro-1,8-naphthyridine-3-carboxylic acid methanesulfonate n=1.5 hydrate]
[1]; 70° C., 4 weeks, liquid chromatography
  Chemical stability compared with the anhydrate: same degree of chemical stability as the anhydrate
[1]; 1 week
  Thermal stability with elapsed time: 97.3%
[1]; 2 weeks
  Thermal stability with elapsed time: 95.8%
[1]; 3 weeks
  Thermal stability with elapsed time: 97.2%
[1]; 4 weeks
  Thermal stability with elapsed time: 96.2%
[1]; Initial
  Thermal stability with elapsed time: 100%
[2]; FIGS. 3 and 4
  Relative humidity range with constant moisture content: 23 to 64%
[2]; above 75% relative humidity
  Water taken up: over 10%
[2]; relative humidity 23 to 64%
  Equilibrium moisture content: around 5%
[3]; listed as 1.5, hydrate
  Moisture Content: 4~6 % w/w

## CON=C1CN(c2nc3c(cc2F)c(=O)c(C(=O)O)cn3C2CC2)CC1CN.CS(=O)(=O)O.O.O.O.O (stereo not shown) [n = 4 hydrate]
[3]
  Moisture Content: 12~13 % w/w

## CON=C1CN(c2nc3c(cc2F)c(=O)c(C(=O)O)cn3C2CC2)CC1CN.CON=C1CN(c2nc3c(cc2F)c(=O)c(C(=O)O)cn3C2CC2)CC1CN.CS(=O)(=O)O.CS(=O)(=O)O.O.O.O.O.O (stereo not shown) [n = 2.5 hydrate]
[3]
  Moisture Content: 8~9 % w/w
